Results reported in ChEMBL document CHEMBL1135259, “Azapeptides as inhibitors of the hepatitis C virus NS3 serine protease” (Bioorg Med Chem Lett, 2002).

Each compound was assayed against NS3 (Hepatitis C virus) (UniProt A3EZJ3) (assay: Binding affinity against Hepatitis C virus NS3 protease was calculated as Kcat). Details: Hepacivirus hominis.
Sequence of NS3 (Hepatitis C virus) (A3EZJ3 as listed by the source): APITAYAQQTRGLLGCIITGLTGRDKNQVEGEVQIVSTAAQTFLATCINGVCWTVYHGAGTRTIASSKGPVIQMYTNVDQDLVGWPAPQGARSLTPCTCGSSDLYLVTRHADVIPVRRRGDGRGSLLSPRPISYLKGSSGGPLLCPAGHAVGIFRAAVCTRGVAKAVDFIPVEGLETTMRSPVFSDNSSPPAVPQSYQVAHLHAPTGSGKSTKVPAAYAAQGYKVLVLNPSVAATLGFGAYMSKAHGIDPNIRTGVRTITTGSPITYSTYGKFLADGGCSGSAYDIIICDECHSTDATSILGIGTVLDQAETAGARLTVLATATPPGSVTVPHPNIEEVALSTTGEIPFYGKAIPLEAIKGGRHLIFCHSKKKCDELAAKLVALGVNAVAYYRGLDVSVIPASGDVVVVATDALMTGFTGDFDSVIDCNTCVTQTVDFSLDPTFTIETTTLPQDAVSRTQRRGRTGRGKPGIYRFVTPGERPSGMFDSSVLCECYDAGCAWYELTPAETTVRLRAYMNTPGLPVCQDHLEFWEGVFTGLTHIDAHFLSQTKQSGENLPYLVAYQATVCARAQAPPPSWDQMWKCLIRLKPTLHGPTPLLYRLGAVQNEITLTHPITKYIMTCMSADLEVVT

Row | SMILES | k cat
1 | CCCN(NC(=O)[C@H]1CCCN1C(=O)[C@@H](NC(=O)[C@@H](NC(C)=O)C(C)C)C(C)C)C(=O)Oc1ccc([N+](=O)[O-])cc1 | 0.00667 s⁻¹
2 | CCCC(NC(=O)[C@H]1CCCN1C(=O)[C@@H](NC(=O)[C@@H](NC(=O)[C@H](CC(=O)O)NC(=O)[C@H](CCC(=O)O)NC(=O)[C@@H](NC(=O)[C@H](CC(=O)O)NC(C)=O)[C@@H](C)O)C(C)C)C(C)C)C(=O)Oc1ccc([N+](=O)[O-])cc1 (stereo not given in full) | 1.67 s⁻¹
3 | CCCN(NC(=O)[C@H]1CCCN1C(=O)[C@@H](NC(=O)[C@@H](NC(=O)[C@H](CC(=O)O)NC(C)=O)C(C)C)C(C)C)C(=O)Oc1ccc([N+](=O)[O-])cc1 | 0.00833 s⁻¹
4 | CCCN(NC(=O)[C@H]1CCCN1C(=O)[C@@H](NC(=O)[C@@H](NC(=O)[C@H](CC(=O)O)NC(=O)[C@H](CCC(=O)O)NC(C)=O)C(C)C)C(C)C)C(=O)Oc1ccc([N+](=O)[O-])cc1 | 0.00833 s⁻¹
5 | CCCN(NC(=O)[C@H]1CCCN1C(=O)[C@@H](NC(=O)[C@@H](NC(=O)[C@H](CC(=O)O)NC(=O)[C@H](CCC(=O)O)NC(=O)[C@@H](NC(C)=O)[C@@H](C)O)C(C)C)C(C)C)C(=O)Oc1ccc([N+](=O)[O-])cc1 | 0.00833 s⁻¹
